# US20260344670A1, “BIXLOZONE MIXTURES WITH PETHOXAMID” (FMC CORPORATION, priority 2022, published 2026)
# Columns and labels:
# Format in all cases: in vivo
# [1] = test system: Persicaria maculosa (POLPE); assay: pre-emergence control of POLPE in corn (efficacy, Colby synergy)
# Source text: (§1) [formula] • where ppm=milligrams of active ingredient (=a.i.) per liter of spray mixture X=% action by component A using p ppm of active ingredient Y=% action by component B using q ppm of active ingredient. If the ratio R defined as the action actually observed (O) divided by the expected action (E) is >1 then the action of the combination is superadditive, i.e. there is a synergistic effect. For a more detailed description of the Colby formula, see Colby, S. R. “Calculating Synergistic and Antagonistic Responses of Herbicide Combination”, Weeds, Vol. 15, pages 20-22; 1967; see also Limpel et al., Proc. NEWCC 16:48-53 (1962).
# (§2) As used herein, rating timings correspond to the following: A1=weed assessment at BBCH 11-12; A2=4 weeks after the application; A3=when ZEAMX crop reaches BBCH 18 (row closure); and A4=BBCH 51-59 of the ZEAMX crop.
# (§3) The herbicidal compounds bixlozone and pethoxamid were applied in a variety of forms and at a variety of amounts, application rates, and normalities. Efficacy of the herbicidal compositions was evaluated with reference to a scale of 0% to 100% in comparison with untreated control plots. 0 means no damage to the harmful plants and 100 means complete destruction of the harmful plants. Plants per square meter is indicated by “pl/m^2”, and grams per hectare is indicated by “g/ha”. The acronym “EC” means emulsifiable concentrate (a liquid, homogenous formulation to be applied as an emulsion after dilution with water); “SC” means suspension concentrate (a stable suspension of active ingredient(s) with water as the fluid); “ZC” refers to a mixed formulation of CS and SC (a stable suspension of capsules and active ingredient(s) in a fluid, normally intended for dilution with water before use).
# (§4) Various forms, compositions, and mixtures of bixlozone and pethoxamid were applied to corn before emergence. […] There was equivalent efficacy for fixed rate of bixlozone combined with pethoxamid: 1200 or 900 g/ha. Efficacy was reduced when bixlozone rate decreased from 250 to 150 g/ha. […]
# [2] = test system: Mercurialis annua (MERAN); assay: pre-emergence control of MERAN in corn (efficacy, Colby synergy)
# Source text: as §1, §2, §3, §4
# [3] = test system: Persicaria lapathifolia (POLLA); assay: pre-emergence control of POLLA in corn (efficacy, Colby synergy)
# Source text: as §1, §2, §3, §4
# Senecio vulgaris (SENVU) = assay: pre-emergence control of SENVU in corn (efficacy, Colby synergy); details: bixlozone 375, pethoxamid 800, tank mix 375 + 800, premix 375 + 775 g/ha
# Source text: as §1, §2
# (§5) The herbicidal compounds bixlozone and pethoxamid were applied in a variety of forms and at a variety of amounts, application rates, and normalities. Efficacy of the herbicidal compositions was evaluated with reference to a scale of 0% to 100% in comparison with untreated control plots. 0 means no damage to the harmful plants and 100 means complete destruction of the harmful plants. Plants per square meter is indicated by “pl/m^2”, and grams per hectare is indicated by “g/ha”. […]
# DAUCA = assay: pre-emergence control of DAUCA in corn (efficacy, Colby synergy); details: bixlozone 375, pethoxamid 300, mixtures 375 + 300 g/ha
# Source text: (§6) Table 11. Synergy data of various forms and mixtures of bixlozone and pethoxamid after pre-emergence application on corn at the crop row closure stage (BBCH 18). The notations in parentheses show the forms and amounts (in g/ha) of applied bixlozone and pethoxamid, respectively. Where “tank” is noted, the mix is a tank mix. Where “premix” is noted, the mix is a premix. Where there is no notation, the value shown is the Colby calculation for the expected value from separate mixtures.
# (§7) Various forms, compositions, and mixtures of bixlozone and pethoxamid were applied to corn before emergence. […] Mixtures of bixlozone with 300 g/ha pethoxamid improved weed spectrum on a range of broad leaf weeds (e.g., SOLNI and ABUTH). Combinations of bixlozone and pethoxamid in pre-emergence applications were very safe with no clear pethoxamid rate effect.
# (§8) Table 13. Efficacies of various forms and mixtures of bixlozone and pethoxamid after pre-emergence application on corn. Weeds were present at ≥5 pl/m^2. Concentrations are shown in parentheses in g/ha.
# [4] = test system: Convolvulus arvensis (CONAR); assay: pre-emergence control of CONAR in corn (efficacy, Colby synergy); details: bixlozone 375, pethoxamid 300, mixtures 375 + 300 g/ha
# Source text: as §1, §2, §5
# FUMOF = assay: pre-emergence control of FUMOF in corn (efficacy, Colby synergy); details: bixlozone 375, pethoxamid 800, tank mix 375 + 800, premix 375 + 775 g/ha
# Source text: (§9) Table 10. Synergy data of various forms and mixtures of bixlozone and pethoxamid after pre-emergence application on corn at the crop row closure stage (BBCH 18). […] The notations in parentheses show the forms and amounts (in g/ha) of applied bixlozone and pethoxamid, respectively. Where “tank” is noted, the mix is a tank mix. Where “premix” is noted, the mix is a premix. Where there is no notation, the value shown is the Colby calculation for the expected value from separate mixtures.
# (§10) Various forms, compositions, and mixtures of bixlozone and pethoxamid were applied to corn before emergence. […] Mixtures of bixlozone with 800 g/ha pethoxamid improved weed spectrum on a range of broad leaf weeds (e.g., CHEAL and ABUTH) and grasses (e.g., ECHCG, DIGSA, and SETVI). Combinations of bixlozone and pethoxamid in pre-emergence applications were very safe with no clear pethoxamid rate effect.
# (§11) Table 12. Efficacies of various forms and mixtures of bixlozone and pethoxamid after pre-emergence application on corn. Weeds were present at ≥5 pl/m^2. Concentrations are shown in parentheses in g/ha.
# [5] = test system: Chenopodium album (CHEAL); assay: pre-emergence control of CHEAL in corn (efficacy, Colby synergy)
# Source text: as §1, §2, §3, §4
# [6] = test system: Panicum dichotomiflorum (PANDI); assay: pre-emergence control of PANDI in corn (Colby synergy)
# Source text: as §1, §3
# Various forms, compositions, and mixtures of bixlozone and pethoxamid were applied to corn before emergence. […] Mixtures of bixlozone with 1200 g/ha pethoxamid improved weed spectrum on a range of broad leaf weeds (e.g., CHEAL, MATSS, and POLSS) and grasses (e.g., ECHCG, DIGSA, and SETVI). Combinations of bixlozone and pethoxamid in pre-emergence applications were very safe with no clear pethoxamid rate effect.
# [7] = test system: Polygonum aviculare (POLAV); assay: pre-emergence control of POLAV in corn (Colby synergy); details: bixlozone 375, pethoxamid 1200, mixtures 375 + 1200 g/ha
# Source text: as §1, §5
# POAAN = assay: pre-emergence control of POAAN in corn (efficacy, Colby synergy); details: bixlozone 375, pethoxamid 300, mixtures 375 + 300 g/ha
# Source text: as §6, §7, §8
# Various forms, compositions, and mixtures of bixlozone and pethoxamid were applied to corn before emergence. […] There was equivalent efficacy for fixed rate of bixlozone combined with pethoxamid: 1200 or 900 g/ha. Efficacy was reduced when bixlozone rate decreased from 250 to 150 g/ha.
# Table 14. […]
# GALAP = assay: pre-emergence control of GALAP in corn (efficacy, Colby synergy)
# Source text: as §9, §10, §11
# Various forms, compositions, and mixtures of bixlozone and pethoxamid were applied to corn before emergence. […]
# ANGAR = assay: pre-emergence control of ANGAR in corn (efficacy, Colby synergy); details: bixlozone 375, pethoxamid 800, tank mix 375 + 800, premix 375 + 775 g/ha
# Source text: as §9, §10, §11
# Setaria viridis (SETVI) = assay: pre-emergence control of SETVI in corn (efficacy, Colby synergy)
# Source text: as §1, §2, §3, §4
# VERPE = assay: pre-emergence control of VERPE in corn (efficacy, Colby synergy)
# Source text: as §6, §10, §11
# Various forms, compositions, and mixtures of bixlozone and pethoxamid were applied to corn before emergence. […] Mixtures of bixlozone with 300 g/ha pethoxamid improved weed spectrum on a range of broad leaf weeds (e.g., SOLNI and ABUTH). […]
# [8] = test system: Tripleurospermum inodorum (MATIN); assay: pre-emergence control of MATIN in corn (Colby synergy)
# Source text: as §1, §5
# [9] = test system: Fallopia convolvulus (POLCO); assay: pre-emergence control of POLCO in corn (efficacy, Colby synergy)
# Source text: as §1, §2, §5
# [10] = bixlozone 375, pethoxamid 300, mixtures 375 + 300 g/ha
# [11] = bixlozone 375, pethoxamid 800, tank mix 375 + 800, premix 375 + 775 g/ha
# [12] = bixlozone 375, pethoxamid 1200, mixtures 375 + 1200 g/ha
smiles,measurement,setting,value
CCOCCN(C(=O)CCl)C(=C(C)C)c1ccccc1 [pethoxamid],Efficacy,[1]; [10],45.5
same,Efficacy,[1]; [11],61.8
same,Efficacy,[1]; [12],62.5
same,Efficacy,[2]; [10],36.3
same,Efficacy,[2]; [11],16.9
same,Efficacy,[2]; [12],48.6
same,Efficacy,[3]; [10],42.2
same,Efficacy,[3]; [11],49.3
same,Efficacy,[3]; [12],87.8
same,Efficacy,Senecio vulgaris (SENVU),13.8
same,Efficacy,DAUCA,83
same,Efficacy,[4],39.6
same,Efficacy,FUMOF,12.5
same,Efficacy,[5]; [10],35.7
same,Efficacy,[5]; [11],66.6
same,Efficacy,[5]; [12],72.2
same,Efficacy,[6]; [10],68.8
same,Efficacy,[6]; [11],71.3
same,Efficacy,[6]; [12],84.8
same,Efficacy,[7],77.5
same,Efficacy,POAAN,7.5
same,Efficacy,GALAP; [10],7.5
same,Efficacy,GALAP; [11],7.5
same,Efficacy,ANGAR,100
same,Efficacy,Setaria viridis (SETVI); [10],30
same,Efficacy,Setaria viridis (SETVI); [11],81
same,Efficacy,Setaria viridis (SETVI); [12],52.1
same,Efficacy,VERPE; [10],46.3
same,Efficacy,VERPE; [11],54.4
same,Efficacy,[8]; [10],50
same,Efficacy,[8]; [12],100
same,Efficacy,[9]; [11],1.3
same,Efficacy,[9]; [12],12.1
